PMC12566593, “Effects of Different Centrifugation Parameters on Equilibrium Solubility Measurements” (Methods and Protocols, 2025)
Counter-ions that a name gives are not always drawn. Like-named read-outs stand apart in the source and are kept apart here.

Tests used:
[1] = cited from earlier work; for Filtration: Result Range: % of reference, all filters
[2] = Equilibrium solubility, saturation shake-flask, sedimentation as phase separation (reference, standard protocol); settings: for solubility: Britton-Robinson buffer
Excerpt: BR buffers were used in the experiments across a pH range of 2.0 to 11.0, prepared by combining 0.04 M acetic acid, 0.04 M phosphoric acid, and 0.04 M boric acid. The mixture was then titrated with varying amounts of 0.2 M NaOH to achieve the desired pH values. The ionic strength was kept constant (I = 0.15) across all pH values using appropriate amounts of inert KCl. […] Different amounts of 0.2 M NaOH were used to adjust the pH of the buffer to the desired values, between pH 2.0 and 11.0.
(§1) Samples were stirred using the μDISS Profiler™ (Pion Inc., Billerica, MA, USA) at 150 rpm [33], the pH was checked after 1 h and adjusted, if necessary, with either 0.1 M HCl or 0.1 M NaOH. To confirm the reliability of the results, the pH was measured again at the end of each experiment. Prior to centrifugation, two different approaches were applied: stirring samples for 6 h, followed by 18 h of sedimentation, according to the standardized protocol [18], or continuously stirring samples for 24 h, without a subsequent sedimentation step.
(§2) After centrifugation, the concentration was measured by the μDISS Profiler™ (Pion Inc., Billerica, MA, USA) equipped with UV probes. The aliquots were diluted with the buffer solution if necessary. The 2nd derivative method was utilized in the AuPRO™ 7.1 software (Pion Inc., Billerica, MA, USA) to determine the concentration of the samples after a calibration was conducted for each substance. Calibration was performed by adding small volumes of methanolic stock solutions with known concentrations to buffer solutions of defined pH. Separate calibration curves were prepared for each UV probe.
At least three parallel measurements were carried out for each compound with each combination of variables (Table S1).

[3] = Ionization state calculated from pKa and buffer pH; assay type: physicochemical; settings: pH 6.4
Excerpt: Depending on the pH, the molecule exists as the neutral acid (H2A), monoanion (HA^−), or dianion (A^2−). […] These values were derived from the mole fraction (x) of the various species, based on the compound’s known pKa values and the corresponding buffer pH (Equations (3)–(6)).

[4] = Equilibrium solubility, saturation shake-flask, centrifugation as phase separation; settings: for solubility thermodynamic / solubility thermodynamic at 24 h: Britton-Robinson buffer; for solubility thermodynamic: sedimented before centrifugation; for solubility thermodynamic at 24 h: continuously stirred, no sedimentation; for Centrifugation: Result Range: % of reference, all centrifugation protocols
Description: To determine equilibrium solubility, the samples were added to Britton-Robinson buffer solutions (BRB) adjusted to specific pH values, obtaining a heterogenous system (Table S2). BR buffers were used in the experiments across a pH range of 2.0 to 11.0, prepared by combining 0.04 M acetic acid, 0.04 M phosphoric acid, and 0.04 M boric acid. The mixture was then titrated with varying amounts of 0.2 M NaOH to achieve the desired pH values. The ionic strength was kept constant (I = 0.15) across all pH values using appropriate amounts of inert KCl. […] The exception was progesterone, a neutral molecule, for which only a single pH condition was necessary. […] This strategy enabled a more comprehensive assessment of how centrifugation parameters influence solubility. Different amounts of 0.2 M NaOH were used to adjust the pH of the buffer to the desired values, between pH 2.0 and 11.0.
as §1
From each sample, aliquots of 10 mL were transferred into centrifugation tubes and centrifuged using a Sartorius 2–16P type centrifuge.
as §2
At least three parallel measurements were carried out for each compound with each combination of variables (Table S1). Equilibrium solubility measurements using centrifugation were compared to those obtained by using only sedimentation.

In the case of `COc1ccc(Cc2nccc3cc(OC)c(OC)cc23)cc1OC` [PAP-HCL, papaverine hydrochloride], the “Filtration: Result Range” value ([1]; pH 3.0) is listed as 85–95%, the “Filtration: Closest to Reference (100%)” value ([1]; pH 3.0) is listed as 95% and the “Filtration: Result Range” value ([1]; pH 6.4) is listed as 42–106%. The “Filtration: Closest to Reference (100%)” value ([1]; pH 6.4) was 95%, the “Filtration: Result Range” value ([1]; pH 10.0) was 62–95% and the “Filtration: Closest to Reference (100%)” value ([1]; pH 10.0) was 95%. For the same compound, the solubility ([2]; 25 °C, pH 3, aqueous buffer, thermodynamic from solid, Solubility (reference), pH 3.0, 6 h stirring, 18 h sedimentation) was 40400 µg/mL, the solubility ([2]; 25 °C, pH 6.4, aqueous buffer, thermodynamic from solid, Solubility (reference), pH 6.4, 6 h stirring, 18 h sedimentation) was 24.2 ± 1.1 µg/mL and the solubility ([2]; pH 10, Solubility (reference), pH 10.0, 6 h stirring, 18 h sedimentation, 25 °C) was ~17 µg/mL. For the same compound, the “Solubility at pH 3.0 relative to pH 10.0” value ([2]; fully ionized vs neutral form) was “around 2350 times”, the “Solubility (reference)” value ([2]; pH 10.0, 6 h stirring, 18 h sedimentation, 25 °C) was 16.9 ± 1.7 µg/mL and the Fraction ionized [3] was 50%. The “Solubility higher than the reference” value ([4]; 10,000 rpm for 20 min without prior sedimentation) was 60–70%, the solubility thermodynamic ([4]; 25 °C, pH 3, aqueous buffer, thermodynamic from solid, Equilibrium solubility S sed, pH 3.0, 5000 rpm, 5 min) was 37200 µg/mL and the solubility thermodynamic ([4]; 25 °C, pH 3, aqueous buffer, thermodynamic from solid, Equilibrium solubility S sed, pH 3.0, 5000 rpm, 10 min) was 38000 µg/mL. For the same compound, the solubility thermodynamic ([4]; 25 °C, pH 3, aqueous buffer, thermodynamic from solid, Equilibrium solubility S sed, pH 3.0, 5000 rpm, 20 min) was 37100 µg/mL, the solubility thermodynamic ([4]; 25 °C, pH 3, aqueous buffer, thermodynamic from solid, Equilibrium solubility S sed, pH 3.0, 10,000 rpm, 5 min) was 39500 µg/mL and the solubility thermodynamic ([4]; 25 °C, pH 3, aqueous buffer, thermodynamic from solid, Equilibrium solubility S sed, pH 3.0, 10,000 rpm, 10 min) was 40900 µg/mL. For the same compound, the solubility thermodynamic ([4]; 25 °C, pH 3, aqueous buffer, thermodynamic from solid, Equilibrium solubility S sed, pH 3.0, 10,000 rpm, 20 min) was 39500 µg/mL, the solubility thermodynamic at 24 h ([4]; 25 °C, pH 3, aqueous buffer, thermodynamic from solid, Equilibrium solubility S stir, pH 3.0, 5000 rpm, 5 min) was 36800 µg/mL and the solubility thermodynamic at 24 h ([4]; 25 °C, pH 3, aqueous buffer, thermodynamic from solid, Equilibrium solubility S stir, pH 3.0, 5000 rpm, 10 min) was 41100 µg/mL. The solubility thermodynamic at 24 h ([4]; 25 °C, pH 3, aqueous buffer, thermodynamic from solid, Equilibrium solubility S stir, pH 3.0, 5000 rpm, 20 min) was 38400 µg/mL, the solubility thermodynamic at 24 h ([4]; 25 °C, pH 3, aqueous buffer, thermodynamic from solid, Equilibrium solubility S stir, pH 3.0, 10,000 rpm, 5 min) was 39100 µg/mL and the solubility thermodynamic at 24 h ([4]; 25 °C, pH 3, aqueous buffer, thermodynamic from solid, Equilibrium solubility S stir, pH 3.0, 10,000 rpm, 10 min) was 40400 µg/mL. It also gave a solubility thermodynamic at 24 h ([4]; 25 °C, pH 3, aqueous buffer, thermodynamic from solid, Equilibrium solubility S stir, pH 3.0, 10,000 rpm, 20 min) of 39300 µg/mL, a solubility thermodynamic ([4]; 25 °C, pH 6.4, aqueous buffer, thermodynamic from solid, Equilibrium solubility S sed, pH 6.4, 5000 rpm, 5 min) of 24.4 ± 0.48 µg/mL and a solubility thermodynamic ([4]; 25 °C, pH 6.4, aqueous buffer, thermodynamic from solid, Equilibrium solubility S sed, pH 6.4, 5000 rpm, 10 min) of 28.2 ± 0.78 µg/mL. It also gave a solubility thermodynamic ([4]; 25 °C, pH 6.4, aqueous buffer, thermodynamic from solid, Equilibrium solubility S sed, pH 6.4, 5000 rpm, 20 min) of 28.2 ± 0.73 µg/mL, a solubility thermodynamic ([4]; 25 °C, pH 6.4, aqueous buffer, thermodynamic from solid, Equilibrium solubility S sed, pH 6.4, 10,000 rpm, 5 min) of 24.4 ± 1.17 µg/mL and a solubility thermodynamic ([4]; 25 °C, pH 6.4, aqueous buffer, thermodynamic from solid, Equilibrium solubility S sed, pH 6.4, 10,000 rpm, 10 min) of 32.8 ± 0.81 µg/mL. The solubility thermodynamic ([4]; 25 °C, pH 6.4, aqueous buffer, thermodynamic from solid, Equilibrium solubility S sed, pH 6.4, 10,000 rpm, 20 min) was 31.2 ± 1.08 µg/mL, the solubility thermodynamic at 24 h ([4]; 25 °C, pH 6.4, aqueous buffer, thermodynamic from solid, Equilibrium solubility S stir, pH 6.4, 5000 rpm, 5 min) was 33 ± 2.11 µg/mL and the solubility thermodynamic at 24 h ([4]; 25 °C, pH 6.4, aqueous buffer, thermodynamic from solid, Equilibrium solubility S stir, pH 6.4, 5000 rpm, 10 min) was 32.3 ± 1.54 µg/mL. For the same compound, the solubility thermodynamic at 24 h ([4]; 25 °C, pH 6.4, aqueous buffer, thermodynamic from solid, Equilibrium solubility S stir, pH 6.4, 5000 rpm, 20 min) was 32.9 ± 1.26 µg/mL, the solubility thermodynamic at 24 h ([4]; 25 °C, pH 6.4, aqueous buffer, thermodynamic from solid, Equilibrium solubility S stir, pH 6.4, 10,000 rpm, 5 min) was 28.6 ± 1.55 µg/mL and the solubility thermodynamic at 24 h ([4]; 25 °C, pH 6.4, aqueous buffer, thermodynamic from solid, Equilibrium solubility S stir, pH 6.4, 10,000 rpm, 10 min) was 37.8 ± 2.07 µg/mL. The solubility thermodynamic at 24 h ([4]; 25 °C, pH 6.4, aqueous buffer, thermodynamic from solid, Equilibrium solubility S stir, pH 6.4, 10,000 rpm, 20 min) was 39.1 ± 1.34 µg/mL, the solubility thermodynamic ([4]; 25 °C, pH 10, aqueous buffer, thermodynamic from solid, Equilibrium solubility S sed, pH 10.0, 5000 rpm, 10 min) was 14.3 ± 0.17 µg/mL and the solubility thermodynamic ([4]; 25 °C, pH 10, aqueous buffer, thermodynamic from solid, Equilibrium solubility S sed, pH 10.0, 10,000 rpm, 5 min) was 16.3 ± 0.57 µg/mL. The solubility thermodynamic ([4]; 25 °C, pH 10, aqueous buffer, thermodynamic from solid, Equilibrium solubility S sed, pH 10.0, 10,000 rpm, 10 min) was 17.5 ± 0.18 µg/mL, the solubility thermodynamic ([4]; 25 °C, pH 10, aqueous buffer, thermodynamic from solid, Equilibrium solubility S sed, pH 10.0, 10,000 rpm, 20 min) was 18.7 ± 2.41 µg/mL and the solubility thermodynamic at 24 h ([4]; 25 °C, pH 10, aqueous buffer, thermodynamic from solid, Equilibrium solubility S stir, pH 10.0, 5000 rpm, 5 min) was 18.4 ± 0.28 µg/mL. For the same compound, the solubility thermodynamic at 24 h ([4]; 25 °C, pH 10, aqueous buffer, thermodynamic from solid, Equilibrium solubility S stir, pH 10.0, 10,000 rpm, 10 min) was 18.2 ± 1.12 µg/mL, the solubility thermodynamic at 24 h ([4]; 25 °C, pH 10, aqueous buffer, thermodynamic from solid, Equilibrium solubility S stir, pH 10.0, 10,000 rpm, 20 min) was 28.7 ± 0.7 µg/mL and the solubility thermodynamic ([4]; pH 10, Equilibrium solubility S sed, pH 10.0, 5000 rpm, 5 min) was 17 ± 0.86 µg/mL. For the same compound, the solubility thermodynamic ([4]; pH 10, Equilibrium solubility S sed, pH 10.0, 5000 rpm, 20 min) was 14.4 ± 0.38 µg/mL, the solubility thermodynamic at 24 h ([4]; pH 10, Equilibrium solubility S stir, pH 10.0, 5000 rpm, 10 min) was 13.3 ± 0.2 µg/mL and the solubility thermodynamic at 24 h ([4]; pH 10, Equilibrium solubility S stir, pH 10.0, 5000 rpm, 20 min) was 16.9 ± 0.79 µg/mL. The solubility thermodynamic at 24 h ([4]; pH 10, Equilibrium solubility S stir, pH 10.0, 10,000 rpm, 5 min) was 17.8 ± 0.5 µg/mL, the “Centrifugation: Closest to Reference (100%)” value (“Centrifugation … (100%)” below) ([4]; pH 3.0) was 100% and the “Centrifugation: Result Range” value ([4]; pH 3.0) was 91–102%. For the same compound, the “Centrifugation … (100%)” value ([4]; pH 6.4) was 101%, the “Centrifugation: Result Range” value ([4]; pH 6.4) was 101–162% and the “Centrifugation … (100%)” value ([4]; pH 10.0) was 100%. The “Centrifugation: Result Range” value ([4]; pH 10.0) was 78–170% and the “Solubility compared to the other samples” value ([4]; pH 10.0, higher centrifugation speed, 20 min of centrifugation) was “nearly doubled”.
